Tests used:
PINK = PINK (Tribolium castaneum, UniProt D6WMX4); assay: Kinase profiling; format: biochemical, insect; settings: 0.1 or 1 μM inhibitor; mean of triplicate
Experimental: Kinase inhibitor specificity profiling assays were carried out at The International Centre for Protein Kinase Profiling (http://www.kinase-screen.mrc.ac.uk/) against a panel of 140 protein kinases as described previously. Results are presented as a percentage of kinase activity in DMSO control reactions. Protein kinases were assayed in vitro with 0.1 or 1 μM of the inhibitors and the results are presented as an average of triplicate reactions±S.D. or in the form of comparative histograms.

U2OS cells = assay: 3D Matrigel Transwell invasion assay; format: cell-based; settings: 10 μM, 16 h, 10% FBS chemoattractant
Experimental: The ability of U2OS cells to invade in the presence or absence of 10 μM HTH-01-015 or WZ4003 was tested in a growth-factor-reduced Matrigel™ invasion chamber (BD Biosciences, catalogue number 354483) as described previously. Cells were serum-deprived for 2 h, detached using cell-dissociation buffer (Gibco), and 2.5×10^5 cells suspended in DMEM containing 1% (w/v) BSA were added to the upper chambers in triplicate and chemoattractant [DMEM containing 10% (v/v) FBS] was added to the lower wells. The chambers were kept at 37°C in 5% CO2 for 16 h in the presence or absence of 10 μM HTH-01-015 or WZ4003 both in the upper and lower wells. Non-invaded cells were removed from the upper face of the filters by scraping, and cells that had migrated to the lower face of the filters were fixed and stained with Reastain Quick-Diff kit (Reagena) and images (×10 magnification) were captured. For cell invasion assays, statistical significance was assessed using GraphPad Prism 5.0.

DYRK2 = DYRK2 (Homo sapiens, UniProt Q92630); assay: Kinase profiling; format: biochemical; settings: 0.1 or 1 μM inhibitor; mean of triplicate
DYRK2, sequence (Q92630 whole entry): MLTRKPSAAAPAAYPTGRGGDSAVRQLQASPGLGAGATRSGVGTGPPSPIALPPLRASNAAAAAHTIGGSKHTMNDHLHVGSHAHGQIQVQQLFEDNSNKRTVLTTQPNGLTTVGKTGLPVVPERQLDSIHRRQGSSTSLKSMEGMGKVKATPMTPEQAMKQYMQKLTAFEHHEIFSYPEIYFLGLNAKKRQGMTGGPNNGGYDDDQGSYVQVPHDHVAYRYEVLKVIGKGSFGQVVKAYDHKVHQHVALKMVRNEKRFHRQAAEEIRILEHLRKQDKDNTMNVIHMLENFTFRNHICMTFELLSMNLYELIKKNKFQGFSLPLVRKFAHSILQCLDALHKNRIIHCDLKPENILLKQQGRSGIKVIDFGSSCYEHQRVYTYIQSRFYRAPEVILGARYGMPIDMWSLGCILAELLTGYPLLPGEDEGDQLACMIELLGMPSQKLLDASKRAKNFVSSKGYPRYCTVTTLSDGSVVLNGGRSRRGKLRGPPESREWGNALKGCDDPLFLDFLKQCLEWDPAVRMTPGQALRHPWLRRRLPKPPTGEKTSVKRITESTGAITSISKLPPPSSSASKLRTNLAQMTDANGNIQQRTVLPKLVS
Procedure, shortened: (§1)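 140-kinase in vitro panel; compound 0.1 or 1 μM; triplicate reactions. Output given as remaining activity (% of DMSO control) ±S.D.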

S6K1 = S6K1 (Homo sapiens, UniProt P23443); assay: Kinase profiling; format: biochemical; settings: 0.1 or 1 μM inhibitor; mean of triplicate
Procedure, shortened: as §1

MARK4 = MARK4 (Homo sapiens, UniProt Q96L34); assay: Kinase profiling; format: biochemical; settings: 0.1 or 1 μM inhibitor; mean of triplicate
PKD1 = PKD1 (Homo sapiens, UniProt Q15139); assay: Kinase profiling; format: biochemical; settings: 0.1 or 1 μM inhibitor; mean of triplicate
PKD1, sequence (Q15139 whole entry): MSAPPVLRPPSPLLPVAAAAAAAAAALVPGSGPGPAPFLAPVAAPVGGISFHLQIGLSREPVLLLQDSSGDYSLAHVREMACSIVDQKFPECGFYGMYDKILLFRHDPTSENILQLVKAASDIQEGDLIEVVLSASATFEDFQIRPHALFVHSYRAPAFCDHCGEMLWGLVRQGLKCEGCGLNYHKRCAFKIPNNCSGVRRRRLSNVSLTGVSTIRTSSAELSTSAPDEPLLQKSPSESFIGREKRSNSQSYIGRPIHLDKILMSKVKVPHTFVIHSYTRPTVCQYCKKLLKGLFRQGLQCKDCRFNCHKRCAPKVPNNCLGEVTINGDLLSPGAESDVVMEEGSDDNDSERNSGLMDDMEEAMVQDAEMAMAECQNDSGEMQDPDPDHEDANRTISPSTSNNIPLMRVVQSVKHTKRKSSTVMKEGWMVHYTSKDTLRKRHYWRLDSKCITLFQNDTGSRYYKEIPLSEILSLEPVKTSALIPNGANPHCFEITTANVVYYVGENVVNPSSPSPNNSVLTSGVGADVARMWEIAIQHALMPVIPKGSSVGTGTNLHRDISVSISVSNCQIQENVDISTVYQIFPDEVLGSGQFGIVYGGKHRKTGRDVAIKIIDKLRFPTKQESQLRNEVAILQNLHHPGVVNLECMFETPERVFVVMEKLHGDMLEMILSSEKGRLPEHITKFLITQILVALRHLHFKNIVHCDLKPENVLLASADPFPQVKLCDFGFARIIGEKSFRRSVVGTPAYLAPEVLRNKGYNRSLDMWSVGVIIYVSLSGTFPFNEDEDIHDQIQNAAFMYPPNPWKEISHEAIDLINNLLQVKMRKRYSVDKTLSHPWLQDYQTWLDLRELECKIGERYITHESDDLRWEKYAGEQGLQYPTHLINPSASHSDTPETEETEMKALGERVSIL
Procedure, shortened: as §1

ZAP70 = ZAP70 (Homo sapiens, UniProt P43403); assay: Kinase profiling; format: biochemical; settings: 0.1 or 1 μM inhibitor; mean of triplicate
Procedure, shortened: as §1

BRK = BRK (Homo sapiens, UniProt Q13882); assay: Kinase profiling; format: biochemical; settings: 0.1 or 1 μM inhibitor; mean of triplicate
Procedure, shortened: as §1

PAK5 = PAK5 (Homo sapiens, UniProt Q9P286); assay: Kinase profiling; format: biochemical; settings: 0.1 or 1 μM inhibitor; mean of triplicate
Procedure, shortened: as §1

MLK3 = MLK3 (Homo sapiens, UniProt Q16584); assay: Kinase profiling; format: biochemical; settings: 0.1 or 1 μM inhibitor; mean of triplicate
Procedure, shortened: as §1

DAPK1 = DAPK1 (Homo sapiens, UniProt P53355); assay: Kinase profiling; format: biochemical; settings: 0.1 or 1 μM inhibitor; mean of triplicate
Procedure, shortened: as §1

p38α MAPK = p38α MAPK (Homo sapiens, UniProt Q16539); assay: Kinase profiling; format: biochemical; settings: 0.1 or 1 μM inhibitor; mean of triplicate
Procedure, shortened: as §1

CDK2-Cyclin A = CDK2-Cyclin A (Homo sapiens, UniProt P24941); assay: Kinase profiling; format: biochemical; settings: 0.1 or 1 μM inhibitor; mean of triplicate
Procedure, shortened: as §1

PRK2 = PRK2 (Homo sapiens, UniProt Q16513); assay: Kinase profiling; format: biochemical; settings: 0.1 or 1 μM inhibitor; mean of triplicate
PLK1 = PLK1 (Homo sapiens, UniProt P53350); assay: Kinase profiling; format: biochemical; settings: 0.1 or 1 μM inhibitor; mean of triplicate
TBK1 = TBK1 (Homo sapiens, UniProt Q9UHD2); assay: Kinase profiling; format: biochemical; settings: 0.1 or 1 μM inhibitor; mean of triplicate
Procedure, shortened: as §1

YES1 = YES1 (Homo sapiens, UniProt P07947); assay: Kinase profiling; format: biochemical; settings: 0.1 or 1 μM inhibitor; mean of triplicate
Procedure, shortened: as §1

PIM1 = PIM1 (Homo sapiens, UniProt P11309); assay: Kinase profiling; format: biochemical; settings: 0.1 or 1 μM inhibitor; mean of triplicate
PIM1, sequence (P11309 whole entry): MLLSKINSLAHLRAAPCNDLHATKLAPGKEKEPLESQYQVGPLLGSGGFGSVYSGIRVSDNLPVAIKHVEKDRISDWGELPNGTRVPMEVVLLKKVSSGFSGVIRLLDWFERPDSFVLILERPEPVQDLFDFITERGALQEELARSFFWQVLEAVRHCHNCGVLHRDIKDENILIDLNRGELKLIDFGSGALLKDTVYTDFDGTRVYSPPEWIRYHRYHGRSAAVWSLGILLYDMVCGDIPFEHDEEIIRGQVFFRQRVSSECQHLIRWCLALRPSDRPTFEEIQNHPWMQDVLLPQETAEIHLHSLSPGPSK

PKA = PKA (Homo sapiens, UniProt P17612); assay: Kinase profiling; format: biochemical; settings: 0.1 or 1 μM inhibitor; mean of triplicate
Procedure, shortened: as §1

STK33 = STK33 (Homo sapiens, UniProt Q9BYT3); assay: Kinase profiling; format: biochemical; settings: 0.1 or 1 μM inhibitor; mean of triplicate
Procedure, shortened: as §1

ERK8 = ERK8 (Homo sapiens, UniProt Q8TD08); assay: Kinase profiling; format: biochemical; settings: 0.1 or 1 μM inhibitor; mean of triplicate
ERK8, sequence (Q8TD08 whole entry): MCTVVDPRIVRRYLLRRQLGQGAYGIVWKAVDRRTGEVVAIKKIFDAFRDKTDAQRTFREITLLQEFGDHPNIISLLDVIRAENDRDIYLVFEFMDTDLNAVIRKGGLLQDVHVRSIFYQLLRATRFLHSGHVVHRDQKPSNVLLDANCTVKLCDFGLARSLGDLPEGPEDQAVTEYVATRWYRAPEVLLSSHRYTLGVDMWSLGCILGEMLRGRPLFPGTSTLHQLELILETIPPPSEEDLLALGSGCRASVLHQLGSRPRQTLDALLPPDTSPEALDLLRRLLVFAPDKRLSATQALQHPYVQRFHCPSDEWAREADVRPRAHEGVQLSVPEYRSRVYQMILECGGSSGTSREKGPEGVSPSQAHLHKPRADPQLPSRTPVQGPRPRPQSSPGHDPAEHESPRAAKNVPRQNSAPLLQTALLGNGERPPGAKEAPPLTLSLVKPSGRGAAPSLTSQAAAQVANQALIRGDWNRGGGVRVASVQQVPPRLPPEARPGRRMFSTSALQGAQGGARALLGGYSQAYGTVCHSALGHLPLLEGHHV
Procedure, shortened: as §1

SYK = SYK (Homo sapiens, UniProt P43405); assay: Kinase profiling; format: biochemical; settings: 0.1 or 1 μM inhibitor; mean of triplicate
Procedure, shortened: as §1

PAK4 = PAK4 (Homo sapiens, UniProt O96013); assay: Kinase profiling; format: biochemical; settings: 0.1 or 1 μM inhibitor; mean of triplicate
MST2 = MST2 (Homo sapiens, UniProt Q13188); assay: Kinase profiling; format: biochemical; settings: 0.1 or 1 μM inhibitor; mean of triplicate
MST2, sequence (Q13188 whole entry): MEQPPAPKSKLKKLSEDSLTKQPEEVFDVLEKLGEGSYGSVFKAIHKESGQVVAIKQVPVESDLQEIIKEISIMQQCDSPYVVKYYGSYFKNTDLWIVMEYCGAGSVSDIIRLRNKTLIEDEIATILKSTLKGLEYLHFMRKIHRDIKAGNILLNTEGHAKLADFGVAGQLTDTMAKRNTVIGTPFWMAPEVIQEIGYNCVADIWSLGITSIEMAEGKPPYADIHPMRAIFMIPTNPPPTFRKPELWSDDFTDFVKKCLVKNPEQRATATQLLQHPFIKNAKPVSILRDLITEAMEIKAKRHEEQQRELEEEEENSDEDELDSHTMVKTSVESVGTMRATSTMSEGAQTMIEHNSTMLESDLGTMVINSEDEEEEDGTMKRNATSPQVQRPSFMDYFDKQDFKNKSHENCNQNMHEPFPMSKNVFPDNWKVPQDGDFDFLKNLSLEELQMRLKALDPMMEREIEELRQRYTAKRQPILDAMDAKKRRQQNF
Procedure, shortened: as §1

TAK1 = TAK1 (Homo sapiens, UniProt O43318); assay: Kinase profiling; format: biochemical; settings: 0.1 or 1 μM inhibitor; mean of triplicate
Procedure, shortened: as §1

PDGFRA = PDGFRA (Homo sapiens, UniProt P16234); assay: Kinase profiling; format: biochemical; settings: 0.1 or 1 μM inhibitor; mean of triplicate
Procedure, shortened: as §1

CLK2 = CLK2 (Homo sapiens, UniProt P49760); assay: Kinase profiling; format: biochemical; settings: 0.1 or 1 μM inhibitor; mean of triplicate
Procedure, shortened: as §1

TTBK2 = TTBK2 (Homo sapiens, UniProt Q6IQ55); assay: Kinase profiling; format: biochemical; settings: 0.1 or 1 μM inhibitor; mean of triplicate
TTBK2, sequence (Q6IQ55 whole entry): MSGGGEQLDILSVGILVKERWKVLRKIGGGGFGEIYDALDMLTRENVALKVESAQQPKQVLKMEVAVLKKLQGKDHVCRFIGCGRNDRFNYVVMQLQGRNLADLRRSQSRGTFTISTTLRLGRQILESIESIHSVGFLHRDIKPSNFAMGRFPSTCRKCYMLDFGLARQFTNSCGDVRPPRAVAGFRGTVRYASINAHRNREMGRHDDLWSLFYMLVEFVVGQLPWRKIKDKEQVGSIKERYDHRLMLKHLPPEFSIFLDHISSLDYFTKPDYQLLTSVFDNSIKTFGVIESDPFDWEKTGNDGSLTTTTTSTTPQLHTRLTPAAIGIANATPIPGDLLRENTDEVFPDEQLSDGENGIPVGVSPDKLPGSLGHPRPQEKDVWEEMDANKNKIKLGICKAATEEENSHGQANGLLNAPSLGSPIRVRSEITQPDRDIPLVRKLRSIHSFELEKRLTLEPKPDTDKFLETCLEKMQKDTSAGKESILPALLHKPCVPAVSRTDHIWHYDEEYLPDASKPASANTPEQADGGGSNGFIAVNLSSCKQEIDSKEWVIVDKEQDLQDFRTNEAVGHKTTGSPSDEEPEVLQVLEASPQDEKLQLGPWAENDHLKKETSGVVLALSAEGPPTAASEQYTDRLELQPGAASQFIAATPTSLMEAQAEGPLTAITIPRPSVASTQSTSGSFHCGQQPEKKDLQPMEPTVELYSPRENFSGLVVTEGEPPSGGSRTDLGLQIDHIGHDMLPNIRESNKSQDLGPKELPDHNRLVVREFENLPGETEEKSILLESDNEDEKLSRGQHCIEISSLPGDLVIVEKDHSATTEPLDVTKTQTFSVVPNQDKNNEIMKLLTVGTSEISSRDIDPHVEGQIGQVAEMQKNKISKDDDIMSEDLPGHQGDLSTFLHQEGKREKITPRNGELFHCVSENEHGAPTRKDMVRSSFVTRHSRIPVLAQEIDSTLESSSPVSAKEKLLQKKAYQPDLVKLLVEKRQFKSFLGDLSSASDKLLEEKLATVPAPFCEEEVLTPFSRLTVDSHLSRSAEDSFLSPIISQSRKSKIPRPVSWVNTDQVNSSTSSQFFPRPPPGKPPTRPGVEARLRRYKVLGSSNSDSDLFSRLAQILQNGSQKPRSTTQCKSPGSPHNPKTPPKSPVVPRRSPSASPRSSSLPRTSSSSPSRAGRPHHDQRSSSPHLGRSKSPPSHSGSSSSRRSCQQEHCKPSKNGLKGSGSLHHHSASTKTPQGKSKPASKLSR
Procedure, shortened: as §1

MSK1 = MSK1 (Homo sapiens, UniProt O75582); assay: Kinase profiling; format: biochemical; settings: 0.1 or 1 μM inhibitor; mean of triplicate
Procedure, shortened: as §1

CHK1 = CHK1 (Homo sapiens, UniProt O14757); assay: Kinase profiling; format: biochemical; settings: 0.1 or 1 μM inhibitor; mean of triplicate
CHK1, sequence (O14757 whole entry): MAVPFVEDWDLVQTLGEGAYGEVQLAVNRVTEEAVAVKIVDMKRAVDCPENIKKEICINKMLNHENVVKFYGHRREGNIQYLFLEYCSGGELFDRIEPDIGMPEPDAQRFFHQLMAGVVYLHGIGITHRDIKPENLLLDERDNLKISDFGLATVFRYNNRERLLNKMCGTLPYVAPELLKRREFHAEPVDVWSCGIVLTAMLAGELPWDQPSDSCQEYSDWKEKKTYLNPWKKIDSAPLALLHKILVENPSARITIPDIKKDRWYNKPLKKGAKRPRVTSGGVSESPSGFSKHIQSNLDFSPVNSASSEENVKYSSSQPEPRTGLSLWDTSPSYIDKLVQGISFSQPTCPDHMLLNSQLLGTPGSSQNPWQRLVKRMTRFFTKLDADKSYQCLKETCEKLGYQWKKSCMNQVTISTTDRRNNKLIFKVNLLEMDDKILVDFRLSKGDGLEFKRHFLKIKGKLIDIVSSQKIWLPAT
Procedure, shortened: as §1

GCK = GCK (Homo sapiens, UniProt Q12851); assay: Kinase profiling; format: biochemical; settings: 0.1 or 1 μM inhibitor; mean of triplicate
EPH-A2 = EPH-A2 (Homo sapiens, UniProt P29317); assay: Kinase profiling; format: biochemical; settings: 0.1 or 1 μM inhibitor; mean of triplicate
Procedure, shortened: as §1

JNK2 = JNK2 (Homo sapiens, UniProt P45984); assay: Kinase profiling; format: biochemical; settings: 0.1 or 1 μM inhibitor; mean of triplicate
Procedure, shortened: as §1

SmMLCK = SmMLCK (Homo sapiens, UniProt Q15746); assay: Kinase profiling; format: biochemical; settings: 0.1 or 1 μM inhibitor; mean of triplicate
Procedure, shortened: as §1

PIM3 = PIM3 (Homo sapiens, UniProt Q86V86); assay: Kinase profiling; format: biochemical; settings: 0.1 or 1 μM inhibitor; mean of triplicate
Procedure, shortened: as §1

ULK2 = ULK2 (Homo sapiens, UniProt Q8IYT8); assay: Kinase profiling; format: biochemical; settings: 0.1 or 1 μM inhibitor; mean of triplicate
Procedure, shortened: as §1

Cc1nc(Nc2cnn(C3CCNCC3)c2)nc2c1N(C)C(=O)c1cc3ccccc3cc1N2C [HTH-01-015]
PINK activity, percentage of DMSO control (PINK): 99 percentage
Invasiveness of U2OS cells (in words) (U2OS cells): markedly inhibited the invasiveness
DYRK2 activity, percentage of DMSO control (DYRK2): 113 percentage
S6K1 activity, percentage of DMSO control (S6K1): 85 percentage
MARK4 activity, percentage of DMSO control (MARK4): 75 percentage
PKD1 activity, percentage of DMSO control (PKD1): 94 percentage
ZAP70 activity, percentage of DMSO control (ZAP70): 103 percentage
BRK activity, percentage of DMSO control (BRK): 96 percentage
PAK5 activity, percentage of DMSO control (PAK5): 95 percentage
MLK3 activity, percentage of DMSO control (MLK3): 94 percentage
DAPK1 activity, percentage of DMSO control (DAPK1): 100 percentage
p38α MAPK activity, percentage of DMSO control (p38α MAPK): 118 percentage
CDK2-Cyclin A activity, percentage of DMSO control (CDK2-Cyclin A): 96 percentage
PRK2 activity, percentage of DMSO control (PRK2): 112 percentage
PLK1 activity, percentage of DMSO control (PLK1): 98 percentage
TBK1 activity, percentage of DMSO control (TBK1): 112 percentage
YES1 activity, percentage of DMSO control (YES1): 76 percentage
PIM1 activity, percentage of DMSO control (PIM1): 92 percentage
PKA activity, percentage of DMSO control (PKA): 101 percentage
STK33 activity, percentage of DMSO control (STK33): 93 percentage
ERK8 activity, percentage of DMSO control (ERK8): 98 percentage
SYK activity, percentage of DMSO control (SYK): 125 percentage
PAK4 activity, percentage of DMSO control (PAK4): 110 percentage
MST2 activity, percentage of DMSO control (MST2): 118 percentage
TAK1 activity, percentage of DMSO control (TAK1): 109 percentage
PDGFRA activity, percentage of DMSO control (PDGFRA): 109 percentage
CLK2 activity, percentage of DMSO control (CLK2): 54 percentage
TTBK2 activity, percentage of DMSO control (TTBK2): 102 percentage
MSK1 activity, percentage of DMSO control (MSK1): 111 percentage
CHK1 activity, percentage of DMSO control (CHK1): 106 percentage
GCK activity, percentage of DMSO control (GCK): 126 percentage
EPH-A2 activity, percentage of DMSO control (EPH-A2): 84 percentage
JNK2 activity, percentage of DMSO control (JNK2): 130 percentage
SmMLCK activity, percentage of DMSO control (SmMLCK): 77 percentage
PIM3 activity, percentage of DMSO control (PIM3): 97 percentage

CCC(=O)Nc1cccc(Oc2nc(Nc3ccc(N4CCN(C)CC4)cc3OC)ncc2Cl)c1 [WZ4003]
Invasiveness of U2OS cells (in words) (U2OS cells): markedly inhibited the invasiveness
ULK2 activity, percentage of DMSO control (ULK2): 37 percentage

Source: article PMC3969223, “Characterization of WZ4003 and HTH-01-015 as selective inhibitors of the LKB1-tumour-suppressor-activated NUAK kinases” (Biochemical Journal, 2013)
